Test results: PMC11497074 (RSC Advances, 2024)

Target: CA IX (Homo sapiens, UniProt Q16790)
Test: biochemical

For `O=c1ccc2ccc(O[C@@H]3O[C@H](CO)[C@@H](O)[C@H](O)[C@H]3O)cc2o1` [Skimmin, skimmin], the IC50 was 0.548 ± 0.0357 µM.
